# Reference: patent US20070122843A1, “Isoflavonoid analogs and their metal complexes as anti-cancer agents” (priority 2005, published 2007)
# Where two headings read alike, the source gives them in different places.
# Columns and labels:
# [1] = system: PC3; experiment: MTT cell viability / proliferation assay, PC3; type: cell-based, human
# Method: (§1) More specifically, the tumor cell lines MCF-7, MDA-MB 231 and COLO 357 were maintained in Dulbecco's modifed Eagle's medium (DMEM) with phenol red. […] The cell lines were cultured in a humidified incubator in an atmosphere of 5% CO2 and were maintained in continuous exponential growth by twice a week passage. Adherent cells at a logarithmic phase were detached by addition of 2-3 ml of trypsin (Gibco), 0.02% EDTA mixture and incubation at 37° C. […] Cells were incubated for 24 h at 37° C. to resume exponential growth. The test compounds were dissolved in DMSO (final concentration 0.1%) and added to the cells 24 h after seeding at varying concentrations. Control wells containing the culture medium, were included in each experiment. Cell proliferation was evaluated after 72 h by means of MTT assay. The biological effects of these compounds were studied against the hormone independent breast (BT20) and prostate (PC3) cancers as well as K-ras positive (Colo357) and K-ras negative (B×PC3) pancreatic cancer cell lines.
# [2] = system: BxPC3; experiment: MTT cell viability / proliferation assay, BxPC3; type: cell-based
# Method: as §1
# [3] = system: COLO 357 cells; experiment: Orthotopic pancreatic tumor model using COLO 357 cells; type: in vivo
# Method: The redox sensitive transcription factor NF-kB, is downstream of the Akt kinase protein and plays major role in the cell proliferation and metastasis and resistance in major cancers such as breast, prostate and pancreatic. […] Nuclear proteins were extracted from the tumor tissue as described previously (see, for example, Banerjee, et al, Cancer Research, Vo. 65, p. 9064 (2005)) and kept at −70° C. until use. Protein concentration was determined using the bicinchonic acid assay kit with BSA as the standard (Pierce Chemical Co., Rockford, Ill.). The incubation mixture included 25 mM DTT and 2.5% Tween 20 in a binding buffer. The DNA-protein complex formed was separated from free oligonucleotide on 8.0% native polyacralyamide gel using buffer containing 50 mM Tris, 200 mm glycine, pH 8.5, and 1 mM EDTA, and then visualized by Odyssey Infrared Imaging System using Odyssey Software Release 1.1.
# Since the NF-κB pathway is regulated by Akt protein, the effects of the FPA-124 on NF-κB activity was studied in an in vivo experiment, specifically the well-established orthotopic pancreatic tumor model using COLO 357 cells.
# [4] = system: COLO357; experiment: MTT cell viability / proliferation assay, COLO357; type: cell-based
# Method: as §1
# [5] = system: BT20; experiment: MTT cell viability / proliferation assay, BT20; type: cell-based
# Method: as §1
# [6] = target: T1, Akt1/PKBα, active enzyme (Homo sapiens, UniProt P31749); experiment: Fluorescence polarization Akt kinase assay; type: biochemical
# T1 construct: purchased Upstate Biotechnology 14-276
# T1 sequence (P31749 whole entry): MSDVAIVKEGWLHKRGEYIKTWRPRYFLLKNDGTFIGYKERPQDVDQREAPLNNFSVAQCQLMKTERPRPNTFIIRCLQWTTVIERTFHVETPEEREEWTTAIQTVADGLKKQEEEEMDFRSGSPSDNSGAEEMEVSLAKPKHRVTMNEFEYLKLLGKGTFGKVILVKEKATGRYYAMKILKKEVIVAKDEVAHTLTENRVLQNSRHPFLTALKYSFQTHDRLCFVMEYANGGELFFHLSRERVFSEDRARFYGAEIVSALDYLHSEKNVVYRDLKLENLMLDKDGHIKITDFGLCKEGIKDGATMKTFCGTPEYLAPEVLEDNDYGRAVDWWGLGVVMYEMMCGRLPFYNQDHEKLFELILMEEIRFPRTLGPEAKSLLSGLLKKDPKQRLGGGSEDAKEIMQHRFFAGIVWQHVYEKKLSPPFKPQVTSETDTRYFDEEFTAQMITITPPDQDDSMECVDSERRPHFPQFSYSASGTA
# Method: The serine threonine Akt kinase reaction was carried out in 96 well black plates in a total volume of 100 μl using Ser/Thr kinase polarization based assay kit from Invitrogen Part # P3103. Briefly, the Akt kinase assay reaction was set up in a total volume of 40 μl in the presence of different concentrations of inhibitor. Stock solutions of test compounds were made in DMSO. From DMSO stocks, 4× solutions of test compounds were prepared in 1× assay dilution buffer; 10 μl of this drug solution was used in the assay. […] The plate was incubated at 30° C. for 30 minutes. Enzyme reaction was quenched with 10 μl of 50 mM EDTA for 5 minutes. Anti phosphor serine antibody was added 25 μl/well followed by 10 μl of fluorescent tracer. The total volume was made up to 100 μl by adding 15 μl of fluorescence polarization assay dilution buffer. Appropriate controls and blanks were prepared. The plate was incubated for 1 h at RT and was analyzed for polarization at 435 excitation and 535 emission wavelength on Tecan Ultra microplate reader. Polarization values were normalized to the control and were plotted against log concentration of test compounds using Graph Pad Prism software. Sigmoidal dose response curve analysis was used to calculate the IC50 of test compounds.
# [7] = system: Colo357, BxPC3, BT20, and PC3 cells; experiment: Cell Death Detection ELISA apoptosis assay; type: cell-based; settings: FPA-124, FPA-125, FPA-127 compared
# Method: To determine whether the metal conjugates induce apoptosis in tumor cells, quantitative evaluation of apoptosis was carried out with a Cell Death Detection ELISA kit (Roche, Palo Alto, Calif.). Apoptosis was detected according to the protocol supplied by the manufacturer.
# Since all copper compounds are redox active metal conjugates, we believe that redox triggered oxidative stress may be one of the underlying mechanisms for the observed apoptotic cell death in the present case. […] This observation is also in accordance with the favorable distortion factor calculated for the present copper compounds using EPR spectra, which factor helps stabilize cuprous and cupric species without dissociation of the conjugate.
# [8] = system: MCF-7; experiment: MTT cell viability assay, MCF-7; type: cell-based
# Method: (§2) The compounds were tested in multiple panels of breast (MCF-7, T47D, BT20 and MDA-MB231), prostate (PC3), and pancreatic (BxPC3, COLO357) cancer cell lines, using the dye 3-[4,5 dimethylthiazol-2-yl]-2,5 diphenyltetrazolium bromide (MTT assay) according to a method described in Banerjee, et al., Cancer Research. 2002 62, 4945.
# (§3) More specifically, the tumor cell lines MCF-7, MDA-MB 231 and COLO 357 were maintained in Dulbecco's modifed Eagle's medium (DMEM) with phenol red. Cell lines T47D, BT20, PC3 and BxPC3 were routinely cultured in RPMI medium, each medium being supplemented with Penicillin (50U/ml), Streptomycin (50 μg/ml) and 10% fetal calf serum (FCS) (Gibco, Myclone). The cell lines were cultured in a humidified incubator in an atmosphere of 5% CO2 and were maintained in continuous exponential growth by twice a week passage.
# (§4) Adherent cells at a logarithmic phase were detached by addition of 2-3 ml of trypsin (Gibco), 0.02% EDTA mixture and incubation at 37° C. Cells were plated (100 μL per well) in 48 well flat bottom microtiter plates at densities of 2000 to 5000 per cm^2 (MCF-7, MDA-MB321, T47D, BT20, PC3, B×PC3, COLO357) cells per well. Cells were incubated for 24 h at 37° C. to resume exponential growth. The test compounds were dissolved in DMSO (final concentration 0.1%) and added to the cells 24 h after seeding at varying concentrations. Control wells containing the culture medium, were included in each experiment. Cell proliferation was evaluated after 72 h by means of MTT assay.
# [9] = system: MDA-MB 231; experiment: MTT cell viability assay, MDA-MB 231; type: cell-based
# Method: as §2, §3, §4
# [10] = system: breast, prostate and pancreatic cancer cell lines; experiment: MTT assay, statements over several cancer cell lines; type: cell-based
# Method: as §2, §3, §4
# The biological effects of these compounds were studied against the hormone independent breast (BT20) and prostate (PC3) cancers as well as K-ras positive (Colo357) and K-ras negative (B×PC3) pancreatic cancer cell lines.
# [11] = system: T47D; experiment: MTT cell viability assay, T47D; type: cell-based; settings: 72 h
# Method: as §2, §3
# as §4, with “The test compounds were dissolved in DMSO (final concentration 0.1%) and added to the cells 24 h after seeding at varying concentrations. Control wells containing the culture medium, were included in each experiment.” left out
# [12] = system: PC3 cells; experiment: Western blot of Akt, p-Akt and PARP in PC3 cells; type: cell-based, human; settings: 10 and 20 μM, 72 h
# Method: Control cells were incubated in the medium with Na2CO3 using same time point. After incubation the cells were lysed with This-HCl (62.5 mm) and 2% SDS. Protein concentration was then measured using […] protein assay (Pierce Chemical Co., Rockford, Ill.). Cell extracts were subjected to 10% SDS-PAGE and electrophoretically transferred to nitrocellulose membrane. Membranes were then incubated with monoclonal anti-Akt (epitome: amino acids 345-480 of Akt1, 1:500; Ontogeny, 26. San Diego, Calif.), anti-phosphor-Akt Ser473 (1:1000; Cell Signaling, Beverly, Mass.), primary monoclonal anti-PARP antibody (1:5000; Biomol, Plymouth Meeting, Pa.) and anti-β-actin (1:5000; Sigma) antibodies, washed with TTBS, and incubated with secondary antibody conjugated with peroxidase. The signal was then detected using the chemiluminescent detection system (Pierce, Rockford, Ill.).
# [13] = system: breast cancer cell line (T47D); experiment: Propidium iodide / Hoechst 33342 staining, apoptosis and cell viability; type: cell-based
# Method: To provide further evidence of apoptosis, we carried out phase contrast microscopy using a mixture of propidium iodide (PI) and Hoechst dye 33342 to determine the integrity of cell membranes of cancer cells. The quantification of the apoptosis was carried out by cell count after staining with PI followed by visualization of treated cells by fluorescence analysis. […] After 5 minutes at 37° C. the cells were placed under a fluorescence microscope (Nikon Optiphot) with a filter block giving excitation at 380 nm and 480 nm.
# [14] = system: vascular endothelial growth factor (VEGF); experiment: VEGF ELISA in BxPC3 cells; type: cell-based, human; settings: 10 μM, 20 μM, 72 h
# Method: B×PC3 cells (0.1×10^6/well) were plated into 6-well plates and incubated in supplemented RPMI containing 10% FBS.
# [15] = 72 h, Table 1, read-out: MTT cell viability assay IC50 PC3
# [16] = 72 h, Table 1, read-out: MTT cell viability assay IC50 BxPC3
# [17] = 72 h, Table 1, read-out: MTT cell viability assay IC50 COLO357
# [18] = 72 h, Table 1, read-out: MTT cell viability assay IC50 BT20
# [19] = FPA-102 25 mg/kg wt, i.v. on alternate days
smiles,measurement,setting,value
NC1=[S+][Cu-2]([Cl])([Cl])[N+](=Cc2coc3ccccc3c2=O)N1 [FPA-124],IC50,"[1]; read-out: concentration for 50% cell kill, PC3 cells",10 µM
same,IC50,"[2]; Table 2, read-out: MTT Cell Proliferation Assay IC50 BxPC3",55 µM
same,NF-κB activity in tumor tissue (EMSA),[3]; FPA-124 study,significantly decreased
same,body weight of the treated animals (toxicity),[3]; FPA-124 study,no change in the body weight
same,tumor load (pancreas weight),[3]; FPA-124 study,decrease in the tumor load
same,IC50,"[4]; Table 2, read-out: MTT Cell Proliferation Assay IC50 COLO357",34 µM
same,IC50,"[5]; read-out: concentration for 50% cell kill, BT20 cells",7 µM
same,IC50,[6]; read-out: Akt kinase activity IC50,0.1 µM
same,"apoptosis by ELISA, rank among metal conjugates",[7],most active compound
CC(=O)C1CCC2C3CCC4=CC(=NNC(N)=S)CCC4(C)C3CCC12C.[Cl][Pt][Cl] (stereo not drawn) [FPA-104],IC50,[1]; [15],18 µM
same,IC50,[2]; [16],5 µM
same,IC50,[4]; [17],7.3 µM
same,IC50,[8]; 72 h,22 µM
same,IC50,[5]; [18],18 µM
same,concentration inhibiting Akt kinase activity,[6],higher concentration
same,IC50,[9]; 72 h,34 µM
"CC(=O)C1CCC2C3CCC4=CC(=NNC(N)=S)CCC4(C)C3CCC12C (stereo not drawn) [FPA-101, 17-acetyl-10,13-dimethyl-1,2,6,7,8,9,11,12,13,14,15,16,17-tetradecahydrocyclopenta[a]phenantnren-3-thiosemicarbazone]",IC50,"[1]; Homo sapiens, PC-3, 72 h, Table 1, read-out: MTT cell viability assay IC50 PC3",16 µM
same,antiproliferative action against the cell lines tested,[10]; cell lines of Table 1,moderate antiproliferative action
same,IC50,"[2]; Homo sapiens, BXPC-3, 72 h, Table 1, read-out: MTT cell viability assay IC50 BxPC3",5 µM
same,IC50,"[4]; Homo sapiens, COLO357, 72 h, Table 1, read-out: MTT cell viability assay IC50 COLO357",13 µM
same,IC50,"[8]; Homo sapiens, MCF7, 72 h",20 µM
same,IC50,"[5]; Homo sapiens, BT-20, 72 h, Table 1, read-out: MTT cell viability assay IC50 BT20",53 µM
same,concentration inhibiting Akt kinase activity,[6],higher concentration
same,IC50,"[9]; Homo sapiens, MDA-MB-231, 72 h",25 µM
CC(=O)C1CCC2C3CCC4=CC(=NNC(N)=S)CCC4(C)C3CCC12C.[Cl][Ni][Cl] (stereo not drawn) [FPA-103],IC50,[1]; [15],> 100 µM
same,IC50,[4]; [17],20 µM
same,IC50,[8]; 72 h,7.5 µM
same,IC50,[5]; [18],> 100 µM
same,concentration inhibiting Akt kinase activity,[6],higher concentration
"O=c1c(-c2ccc(O)cc2)coc2cc(O)cc(O)c12 [Genistein, 4,5,7,-trihydroxyisoflavone, reference compound]",IC50,"[1]; Homo sapiens, PC-3, Table 2, read-out: MTT Cell Proliferation Assay IC50 PC3",50 µM
same,IC50,"[10]; Pancreatic cancer cell, Colo357, BxPC3, BT20, PC3, read-out: IC50 values in these multiple cancer cell lines",> 40 µM
same,IC50,"[2]; Homo sapiens, BXPC-3, Table 2, read-out: MTT Cell Proliferation Assay IC50 BxPC3",30 µM
same,IC50,"[4]; Homo sapiens, COLO357, Table 2, read-out: MTT Cell Proliferation Assay IC50 COLO357",50 µM
same,IC50,"[5]; Homo sapiens, BT-20, Table 2, read-out: MTT Cell Proliferation Assay IC50 BT20",46 to 70 µM
same,IC50,"[6]; Table 2, read-out: Fluorescence Polarization Akt kinase Assay IC50",> 70 µM
CC(=O)C1CCC2C3CCC4=CC(=NNC(N)=S)CCC4(C)C3CCC12C.[Cl][Cu][Cl] (stereo not drawn) [FPA-102],IC50,[1]; [15],9 µM
same,IC50,"[10]; MCF-7, MDA-MB 231, T47D, BT20, PC3, BxPC3, COLO357, read-out: IC50 values, range over the cell lines of Table 1",5 to 13 µM
same,IC50,[2]; [16],12.7 µM
same,body weight of treated mice vs control (toxicity),[3]; [19],no significant change in the body weight
same,tumor burden,[3]; [19],decrease tumor burden
same,NF-κB in tumor tissue (EMSA),"[3]; treatment for 10 days, once every alternate day",down-regulation of NF-κB
same,tumor histology,[3]; tumor from treated mice,marked necrosis and apoptosis
same,"viable part of tumor mass, histology",[3]; tumor from treated mice,20%
same,IC50,[4]; [17],9 µM
same,IC50,[11],5 µM
same,IC50,[8]; 72 h,6 µM
same,"PARP degradation, Western blot",[12],induces poly (ADP-ribose) polymerase degradation
same,"phosphor-Akt, Western blot",[12],down regulates
same,apoptotic cells,"[13]; IC50 concentration, 24-48 h treatment",~95%
same,non-viable cells,"[13]; IC50 concentration, 3 h incubation",40%
same,cell death by uptake of propidium iodide,"[13]; T47D, 10 μM, 72 hours",cells undergoing cell death by uptake of propidium iodide
same,IC50,[5]; [18],13 µM
same,VEGF levels,[14],decrease in the VEGF levels
same,IC50,[9]; 72 h,11 µM
